{
  "source": "patent US20100291009A1",
  "about": "“PREPARATION COMPRISING CHROMAN-2-ONE DERIVATIVES” (Merck Patent Gesellschaft Mit Beschrankter Haftung, priority 2008, published 2010)",
  "data": [
    {"molecular_target": "tyrosinase from fungi", "test": "Tyrosinase assay (L-DOPA as substrate)", "format": "biochemical", "settings": "tyrosinase from fungi (16U), phosphate buffer pH 6.8, 25° C., optical density at 470 nm", "method": "(§1) The action of the compounds I or Ia as skin lighteners is tested through their ability to inhibit the enzyme tyrosinase and thus to suppress melanin synthesis.\n(§2) The inhibiting action of the compounds of the formula I or Ia against tyrosinase is assessed using tyrosinase from fungi and L-DOPA as substrate.\n(§3) The compounds, as described in Examples 1 to 3 and the comparative compounds of Examples 10 and 11, and L-dopa are pre-incubated for 10 minutes at 25° C. in phosphate buffer (pH 6.8), and tyrosinase from fungi (16U) (Fluka) is subsequently added. The optical density of the samples is measured at 470 nm against a negative control (without active compound). Kojic acid is likewise tested as tyrosinase reference, i.e. positive control.\n(§4) The results are shown in the following table, expressed in the IC50 value (the concentration of the test compound at which 50% of the tyrosinase activity is inhibited).", "values": [
      {"smiles": "Cc1cc(O)c(C)c2c1OC(=O)CC2(C)C", "note": "[Example 10, 6-hydroxy-4,4,5,8-tetramethylchroman-2-one]", "IC50 (concentration of the test compound at which 50% of the tyrosinase activity is inhibited)": "No inhibition"},
      {"smiles": "Cc1c(C)c2c(c(C)c1O)C(C)(C)CC(=O)O2", "note": "[Example 11, 6-hydroxy-4,4,5,7,8-pentamethylchroman-2-one]", "IC50 (concentration of the test compound at which 50% of the tyrosinase activity is inhibited)": "No inhibition"}
    ]},
    {"molecular_target": "tyrosinase from fungi", "test": "Tyrosinase assay (L-DOPA as substrate)", "format": "biochemical", "settings": "tyrosinase from fungi (16U), phosphate buffer pH 6.8, 25° C., optical density at 470 nm, read-out: IC50 (concentration of the test compound at which 50% of the tyrosinase activity is inhibited)", "method": "as §1, §2, §3, §4", "units": {"IC50": "µM"}, "values": [
      {"smiles": "O=C1CCc2ccc(O)cc2O1", "note": "[7-Hydroxychroman-2-one, 7-hydroxychroman-2-one]", "IC50": 1000},
      {"smiles": "O=c1cc(CO)occ1O", "note": "[Kojic acid]", "IC50": 12},
      {"smiles": "CCc1cc2c(cc1O)OC(=O)CC2", "note": "[6-Ethyl-7-hydroxychroman-2-one, 6-ethyl-7-hydroxychroman-2-one]", "IC50": 336},
      {"smiles": "CCCCCCc1cc2c(cc1O)OC(=O)CC2", "note": "[6-Hexyl-7-hydroxychroman-2-one, 6-hexyl-7-hydroxychroman-2-one]", "IC50": 25}
    ]}
  ]
}
